# Test results from patent publication EP4273147A1, “SUBSTITUTED SPIROLACTAMS, SALTS THEREOF AND THEIR USE AS HERBICIDALLY ACTIVE SUBSTANCES” (Bayer Aktiengesellschaft, priority 2022, dated 2023).
# What was measured:
# AMARE [1] = assay: Herbicidal pre-emergence action (Table A8); type: in vivo, Amaranthus retroflexus; settings: application rate 1280 g/ha; visual grading after ca. 3 weeks vs untreated controls (100% = plants have died off, 0% = as control plants)
# How it was run: (§1)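 Weed seeds are sown into sandy loam in pots and covered with soil, with two species per pot, one monocot and one dicot.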
# AMARE [2] = assay: Herbicidal post-emergence action (Table B11); type: in vivo, Amaranthus retroflexus; settings: application rate 1280 g/ha
# How it was run: (§2)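 Weed seeds sown in sandy loam in pots (one mono- or dicot species per pot), grown in greenhouse; plants treated post-emergence at one-leaf stage, 2–3 weeks after sowing. After ~3 weeks, damage scored visually vs untreated controls (100% = plants dead, 0% = like controls).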
# ECHCG [3] = assay: Herbicidal post-emergence action, section E (Table E5); type: in vivo, Echinochloa crus-galli; settings: application rate 320 g/ha; assessed visually after ca. 3 weeks
# Description: (§3) 2 to 3 weeks after sowing, the test plants were sprayed in the single-leaf stage.
# ECHCG [4] = assay: Herbicidal pre-emergence action, section C (Table C6); type: in vivo, Echinochloa crus-galli; settings: application rate 80 g/ha; visual grading after ca. 3 weeks
# POAAN [5] = assay: Herbicidal post-emergence action (Table B7); type: in vivo, Poa annua; settings: application rate 320 g/ha
# How it was run: as §2
# LOLRI [6] = assay: Herbicidal pre-emergence action (Table A3); type: in vivo, Lolium rigidum; settings: application rate 320 g/ha; visual grading after ca. 3 weeks
# How it was run: as §1
# MATIN [7] = assay: Herbicidal post-emergence action (Table B6); type: in vivo, Matricaria inodora; settings: application rate 320 g/ha; rated visually after about 3 weeks
# How it was run: as §2
# SETVI [8] = assay: Herbicidal pre-emergence action (Table A5); type: in vivo, Setaria viridis; settings: application rate 320 g/ha; visual grading after ca. 3 weeks
# How it was run: as §1
# SETVI [9] = assay: Herbicidal pre-emergence action, section C (Table C10); type: in vivo, Setaria viridis; settings: application rate 320 g/ha; visual grading after ca. 3 weeks
# TRZAS [10] = assay: Post-emergence effects on crop plants (Table F2); type: in vivo, Triticum aestivum; settings: application rate 320 g/ha, crop plant TRZAS
# Description: as §3
# ZEAMX [11] = assay: Pre-emergence effects on crop plants (Table D1); type: in vivo, Zea mays; settings: crop plant; application rate 320 g/ha; visual grading after ca. 3 weeks
# ORYZA = assay: Post-emergence effects on crop plants (Table F3); type: in vivo, Oryza sativa; settings: application rate 320 g/ha, crop plant ORYZA
# Description: as §3
# TRZAS [12] = assay: Pre-emergence effects on crop plants (Table D2); type: in vivo, Triticum aestivum; settings: crop plant; application rate 80 g/ha; visual grading after ca. 3 weeks
# POAAN [13] = assay: Herbicidal pre-emergence action (Table A7); type: in vivo, Poa annua; settings: application rate 320 g/ha; visual grading after ca. 3 weeks
# How it was run: as §1
# ZEAMX [14] = assay: Post-emergence effects on crop plants (Table F1); type: in vivo, Zea mays; settings: application rate 320 g/ha, crop plant ZEAMX
# Description: as §3
# VERPE [15] = assay: Herbicidal pre-emergence action, section C (Table C11); type: in vivo, Veronica persica; settings: application rate 80 g/ha; visual grading after ca. 3 weeks
# BRSNW [16] = assay: Pre-emergence effects on crop plants (Table D5); type: in vivo, Brassica napus; settings: crop plant; application rate 80 g/ha; visual grading after ca. 3 weeks
# ALOMY [17] = assay: Herbicidal pre-emergence action, section C (Table C2); type: in vivo, Alopecurus myosuroides; settings: application rate 80 g/ha; visual grading after ca. 3 weeks
# GLXMA = assay: Pre-emergence effects on crop plants (Table D4); type: in vivo, Glycine max; settings: crop plant; application rate 320 g/ha; visual grading after ca. 3 weeks
# STEME [18] = assay: Herbicidal pre-emergence action (Table A6); type: in vivo, Stellaria media; settings: application rate 320 g/ha; visual grading after ca. 3 weeks
# How it was run: as §1
# DIGSA = assay: Herbicidal pre-emergence action, section C (Table C5); type: in vivo, Digitaria sanguinalis; settings: application rate 80 g/ha; visual grading after ca. 3 weeks
# ALOMY [19] = assay: Herbicidal post-emergence action, section E (Table E2); type: in vivo, Alopecurus myosuroides; settings: application rate 320 g/ha; assessed visually after ca. 3 weeks
# Description: as §3
# LOLRI [20] = assay: Herbicidal pre-emergence action, section C (Table C7); type: in vivo, Lolium rigidum; settings: application rate 320 g/ha; visual grading after ca. 3 weeks
# VIOTR [21] = assay: Herbicidal pre-emergence action, section C (Table C12); type: in vivo, Viola tricolor; settings: application rate 320 g/ha; visual grading after ca. 3 weeks
# VERPE [22] = assay: Herbicidal post-emergence action, section E (Table E9); type: in vivo, Veronica persica; settings: application rate 320 g/ha; assessed visually after ca. 3 weeks
# Description: as §3
# ECHCG [23] = assay: Herbicidal pre-emergence action (Table A2); type: in vivo, Echinochloa crus-galli; settings: application rate 1280 g/ha; visual grading after ca. 3 weeks
# How it was run: as §1
# BRSNW [24] = assay: Post-emergence effects on crop plants (Table F5); type: in vivo, Brassica napus; settings: application rate 320 g/ha, crop plant BRSNW
# Description: as §3
# ABUTH = assay: Herbicidal post-emergence action (Table B1); type: in vivo, Abutilon theophrasti; settings: application rate 1280 g/ha; treated at one-leaf stage; rated visually after about 3 weeks vs untreated controls (100% = plants have died, 0% = like control plants)
# How it was run: as §2
# STEME [25] = assay: Herbicidal post-emergence action (Table B9); type: in vivo, Stellaria media; settings: application rate 1280 g/ha
# Method: Seeds of mono- and dicotyledonous weed plants were placed in plastic pots in sandy loam soil (doubly sown with in each case one species of mono- or dicotyledonous weed plants per pot), covered with soil and cultivated in a greenhouse under controlled growth conditions. 2 to 3 weeks after sowing, the test plants were treated at the one-leaf stage. […] After the test plants had been kept in the greenhouse under optimum growth conditions for about 3 weeks, the activity of the preparations was rated visually in comparison to untreated controls. For example, 100% activity = the plants have died, 0% activity = like control plants.
# VIOTR [26] = assay: Herbicidal post-emergence action, section E (Table E10); type: in vivo, Viola tricolor; settings: application rate 320 g/ha; assessed visually after ca. 3 weeks
# Description: as §3
# MATIN [27] = assay: Herbicidal pre-emergence action (Table A4); type: in vivo, Matricaria inodora; settings: application rate 1280 g/ha; visual grading after ca. 3 weeks
# How it was run: as §1
smiles,measurement,setting,value
O=C1N(Cc2c(F)ccc(F)c2F)CCCC12CCCN(Cc1c(F)ccc(F)c1F)C2=O (racemic) [I-013],pre-emergence activity against AMARE,AMARE [1],90%
same,post-emergence activity against AMARE,AMARE [2],90%
same,post-emergence activity against ECHCG,ECHCG [3],80%
same,pre-emergence activity against ECHCG,ECHCG [4],100%
same,post-emergence activity against POAAN,POAAN [5],90%
same,pre-emergence activity against LOLRI,LOLRI [6],100%
same,post-emergence activity against MATIN,MATIN [7],90%
same,pre-emergence activity against SETVI,SETVI [8],100%
same,pre-emergence activity against SETVI,SETVI [9],90%
same,post-emergence activity against TRZAS,TRZAS [10],0%
same,pre-emergence activity against ZEAMX,ZEAMX [11],10%
same,post-emergence activity against ORYZA,ORYZA,0%
same,pre-emergence activity against TRZAS,TRZAS [12],20%
same,pre-emergence activity against POAAN,POAAN [13],100%
same,post-emergence activity against ZEAMX,ZEAMX [14],10%
same,pre-emergence activity against VERPE,VERPE [15],90%
same,pre-emergence activity against BRSNW,BRSNW [16],10%
same,pre-emergence activity against ALOMY,ALOMY [17],80%
same,pre-emergence activity against GLXMA,GLXMA,0%
same,pre-emergence activity against STEME,STEME [18],100%
same,pre-emergence activity against DIGSA,DIGSA,100%
same,post-emergence activity against ALOMY,ALOMY [19],80%
same,pre-emergence activity against LOLRI,LOLRI [20],90%
same,pre-emergence activity against VIOTR,VIOTR [21],80%
same,post-emergence activity against VERPE,VERPE [22],80%
same,pre-emergence activity against ECHCG,ECHCG [23],100%
same,post-emergence activity against BRSNW,BRSNW [24],0%
same,post-emergence activity against ABUTH,ABUTH,90%
same,post-emergence activity against STEME,STEME [25],90%
same,post-emergence activity against VIOTR,VIOTR [26],90%
same,pre-emergence activity against MATIN,MATIN [27],90%
